The values that follow come from ChEMBL document CHEMBL1130886, “Serine derived NK1 antagonists. 1: The effect of modifications to the serine substituents” (Bioorg Med Chem Lett, 1998).

This test addresses Substance-P receptor (Homo sapiens, UniProt P25103). Nature of the test: Ability to displace [125I]-substance P from hNK1 receptor in chinese hamster ovarian (CHO) cells. The format is cell-based.

The structures appear in SMILES notation.

Substance-P receptor, sequence (P25103 whole entry): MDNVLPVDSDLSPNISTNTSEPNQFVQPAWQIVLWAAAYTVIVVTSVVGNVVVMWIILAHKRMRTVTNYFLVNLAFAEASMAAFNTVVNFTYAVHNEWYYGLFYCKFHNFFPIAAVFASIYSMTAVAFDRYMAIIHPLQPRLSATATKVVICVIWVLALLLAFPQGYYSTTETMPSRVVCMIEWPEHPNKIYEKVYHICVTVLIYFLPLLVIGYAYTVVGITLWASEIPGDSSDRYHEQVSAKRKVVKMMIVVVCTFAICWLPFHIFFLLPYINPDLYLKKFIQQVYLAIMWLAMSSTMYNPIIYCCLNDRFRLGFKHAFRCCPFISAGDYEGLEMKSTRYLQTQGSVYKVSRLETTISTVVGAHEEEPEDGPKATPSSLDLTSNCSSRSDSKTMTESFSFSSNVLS

On to `CS(=O)(=O)N1CC2(CCN(C(=O)C(COCc3ccccc3)NS(=O)(=O)c3ccc(Cl)c(Cl)c3)CC2)c2ccccc21` (centres undefined), for which the IC50 (as a rule, the midpoint of a concentration-inhibition curve) stood at 88 nM. With `CS(=O)(=O)N1CC2(CCN(C(=O)C(CCCc3ccc(Cl)c(Cl)c3)NCc3ccccc3)CC2)c2ccccc21` (centres undefined) the figure was 3.3 nM. As for `CS(=O)(=O)N1CC2(CCN(C(=O)C(COCc3ccccc3)NC(=O)c3ccc(Cl)c(Cl)c3)CC2)c2ccccc21` (centres undefined), the figure is 260 nM; as for `CS(=O)(=O)N1CC2(CCN(C(=O)C(COCc3ccccc3)NCc3ccc(Cl)c(Cl)c3)CC2)c2ccccc21` (centres undefined), 12 nM; as for `CS(=O)(=O)N1CC2(CCN(C(=O)[C@H](COCc3ccccc3)NCc3ccc(Cl)c(Cl)c3)CC2)c2ccccc21`, 18 nM. `CS(=O)(=O)N1CC2(CCN(C(=O)[C@H](COCc3ccc(Cl)cc3)NCc3ccc(Cl)c(Cl)c3)CC2)c2ccccc21` came in with an IC50 of 23 nM. With `CS(=O)(=O)N1CC2(CCN(C(=O)C(COCc3ccccc3)NCc3ccc(Cl)cc3Cl)CC2)c2ccccc21` (centres undefined) the figure was 100 nM.

`COc1cccc(CNC(COCc2ccccc2)C(=O)N2CCC3(CC2)CN(S(C)(=O)=O)c2ccccc23)c1` (centres undefined) showed an IC50 of 71 nM. Regarding `CS(=O)(=O)N1CC2(CCN(C(=O)C(N)COCc3ccccc3)CC2)c2ccccc21` (centres undefined), the IC50 came to 2000 nM. `CS(=O)(=O)N1CC2(CCN(C(=O)C(COCc3ccccc3)NCc3cc(Cl)cc(Cl)c3)CC2)c2ccccc21` (centres undefined) returned an IC50 of 79 nM. As for `CS(=O)(=O)N1CC2(CCN(C(=O)C(COCc3ccccc3)NCc3c(Cl)cccc3Cl)CC2)c2ccccc21` (centres undefined), the figure is 895 nM; as for `CN(C)c1ccc(CNC(COCc2ccccc2)C(=O)N2CCC3(CC2)CN(S(C)(=O)=O)c2ccccc23)cc1` (centres undefined), 33 nM. In the case of `CS(=O)(=O)N1CC2(CCN(C(=O)[C@H](COCc3ccc(Cl)cc3)NCc3ccccc3)CC2)c2ccccc21`, the IC50 worked out at 6.6 nM.

`CS(=O)(=O)N1CC2(CCN(C(=O)[C@H](CSCc3ccc(Cl)c(Cl)c3)NCc3ccccc3)CC2)c2ccccc21` yielded an IC50 of 13 nM. As for `CS(=O)(=O)N1CC2(CCN(C(=O)[C@H](COCc3ccccc3Cl)NCc3ccccc3)CC2)c2ccccc21`, the figure is 36 nM; as for `CS(=O)(=O)N1CC2(CCN(C(=O)C(COCc3ccccc3)NC(=O)Cc3ccc(Cl)c(Cl)c3)CC2)c2ccccc21` (centres undefined), 43 nM.

The compound `CN(Cc1ccc(Cl)c(Cl)c1)CC(NCc1ccccc1)C(=O)N1CCC2(CC1)CN(S(C)(=O)=O)c1ccccc12` (centres undefined) displayed an IC50 of 54 nM. With `CS(=O)(=O)N1CC2(CCN(C(=O)[C@H](COCc3cccc(Cl)c3)NCc3ccccc3)CC2)c2ccccc21` the figure was 7.7 nM. As for `CS(=O)(=O)N1CC2(CCN(C(=O)C(COCc3ccccc3)NCc3cccc(C#N)c3)CC2)c2ccccc21` (centres undefined), the figure is 152 nM.

In turn, `CS(=O)(=O)N1CC2(CCN(C(=O)[C@H](CS(=O)(=O)Cc3ccc(Cl)c(Cl)c3)NCc3ccccc3)CC2)c2ccccc21` yielded an IC50 of 63 nM. Compound `CS(=O)(=O)N1CC2(CCN(C(=O)C(COCc3ccccc3)NCc3cccc(F)c3)CC2)c2ccccc21` (centres undefined) returned an IC50 of 157 nM. As for `CS(=O)(=O)N1CC2(CCN(C(=O)[C@@H](COCc3ccccc3)NCc3ccc(Cl)c(Cl)c3)CC2)c2ccccc21`, the figure is 42 nM; as for `Cc1cccc(CNC(COCc2ccccc2)C(=O)N2CCC3(CC2)CN(S(C)(=O)=O)c2ccccc23)c1` (centres undefined), 55 nM. On to `CS(=O)(=O)N1CC2(CCN(C(=O)C(COCc3ccccc3)NCc3ccccc3Cl)CC2)c2ccccc21` (centres undefined), for which the IC50 came to 542 nM. This IC50 lies about 9.9-fold higher than the previous one. In the case of `CS(=O)(=O)N1CC2(CCN(C(=O)[C@H](COCc3ccccc3Cl)NCc3ccc(Cl)c(Cl)c3)CC2)c2ccccc21`, the IC50 worked out at 34 nM.

As for `CS(=O)(=O)N1CC2(CCN(C[C@H](COCc3ccc(Cl)c(Cl)c3)NCc3ccccc3)CC2)c2ccccc21`, the IC50 worked out at 170 nM. Compared with the last compound, the IC50 is about 5-fold higher.

`CS(=O)(=O)N1CC2(CCN(C(=O)C(CNCc3ccc(Cl)c(Cl)c3)NCc3ccccc3)CC2)c2ccccc21` (centres undefined) returned an IC50 of 24 nM.

`CS(=O)(=O)N1CC2(CCN(C(=O)C(COCc3ccccc3)NCc3cccc(Cl)c3)CC2)c2ccccc21` (centres undefined) gave an IC50 of 58 nM. With `CS(=O)(=O)N1CC2(CCN(C(=O)C(COCc3ccccc3)NCc3cccc(Br)c3)CC2)c2ccccc21` (centres undefined) the figure was 60 nM; with `CS(=O)(=O)N1CC2(CCN(C(=O)C(COCc3ccccc3)NCc3cccc([N+](=O)[O-])c3)CC2)c2ccccc21` (centres undefined), 120 nM; with `CS(=O)(=O)N1CC2(CCN(C(=O)C(CCc3ccc(Cl)c(Cl)c3)NCc3ccccc3)CC2)c2ccccc21` (centres undefined), 455 nM.

`COc1ccccc1CNC(COCc1ccccc1)C(=O)N1CCC2(CC1)CN(S(C)(=O)=O)c1ccccc12` (centres undefined) gave an IC50 of 163 nM. For `CS(=O)(=O)N1CC2(CCN(C(=O)[C@H](COCc3cccc(Cl)c3)NCc3ccc(Cl)c(Cl)c3)CC2)c2ccccc21`, the IC50 came out at 11 nM. Against the preceding compound, the IC50 is about 15-fold lower. `CS(=O)(=O)N1CC2(CCN(C(=O)[C@H](COCc3cc(C(F)(F)F)cc(C(F)(F)F)c3)NC(=O)c3ccc(Cl)c(Cl)c3)CC2)c2ccccc21`: the IC50 worked out at 1300 nM. For `CS(=O)(=O)N1CC2(CCN(C(=O)C(COCc3ccccc3)NCc3ccccc3)CC2)c2ccccc21` (centres undefined), the IC50 was 80 nM. With `COc1ccc(CNC(COCc2ccccc2)C(=O)N2CCC3(CC2)CN(S(C)(=O)=O)c2ccccc23)cc1` (centres undefined) the figure was 57 nM; with `CS(=O)(=O)N1CC2(CCN(C(=O)C(COCc3ccccc3)NCc3cccc(Cl)c3Cl)CC2)c2ccccc21` (centres undefined), 153 nM. As to `CS(=O)(=O)N1CC2(CCN(C(=O)C(COCc3ccccc3)NCc3ccc(Cl)cc3)CC2)c2ccccc21` (centres undefined), the IC50 was found to be 27 nM. This IC50 lies about 5.7-fold lower than the previous one. As for `CS(=O)(=O)N1CC2(CCN(C(=O)[C@H](COCc3ccc(Cl)c(Cl)c3)NCc3ccc(Cl)c(Cl)c3)CC2)c2ccccc21`, the figure is 1.7 nM.
